Columns and labels:
CDK12/CycK = CDK12/CycK (Homo sapiens, UniProt Q9NYV4); experiment: CDK12/CycK high ATP kinase assay (TR-FRET, 2 mM ATP); format: biochemical; details: 2 mM ATP (high ATP); median; read-out: CDK12/CyclinK, 2 mM ATP (high ATP), IC50-[mol/l] (median)
How it was run: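 His-tagged human CDK12/CycK (~0.75 nM) pre-incubated 15 min with compound, then 60 min at 22 °C with 2 mM ATP and 1 µM biotinylated peptide (HEPES pH 7.5, 20 mM MgCl2). EDTA stop; phospho-Ser62 antibody/Eu anti-rabbit and streptavidin-XL665 TR-FRET, 665/620 nm ratio normalised to give IC50.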

CDK9/CycT1 = target: T1, CDK9/CycT1 (Homo sapiens, UniProt P50750); experiment: CDK9/CycT1 high ATP kinase assay (TR-FRET, 2 mM ATP); format: biochemical; details: 2 mM ATP (high ATP); median; read-out: CDK9/CyclinT1, 2 mM ATP (high ATP), IC50 (median)
T1 construct: Recombinant full-length His-tagged human CDK9 and CycT1; purchased Life Technologies PV4131; host or cells: insect cells
T1 sequence (P50750 whole entry): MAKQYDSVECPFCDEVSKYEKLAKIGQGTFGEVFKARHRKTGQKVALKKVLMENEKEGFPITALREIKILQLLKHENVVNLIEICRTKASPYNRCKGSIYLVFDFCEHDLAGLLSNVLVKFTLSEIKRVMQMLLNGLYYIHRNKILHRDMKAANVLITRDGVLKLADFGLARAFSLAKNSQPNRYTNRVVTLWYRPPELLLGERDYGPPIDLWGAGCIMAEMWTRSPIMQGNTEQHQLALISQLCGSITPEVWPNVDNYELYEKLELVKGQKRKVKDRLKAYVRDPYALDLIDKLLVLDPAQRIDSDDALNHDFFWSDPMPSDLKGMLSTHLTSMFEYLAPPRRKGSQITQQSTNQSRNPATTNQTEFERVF
T1 sequence (O60563 whole entry partner): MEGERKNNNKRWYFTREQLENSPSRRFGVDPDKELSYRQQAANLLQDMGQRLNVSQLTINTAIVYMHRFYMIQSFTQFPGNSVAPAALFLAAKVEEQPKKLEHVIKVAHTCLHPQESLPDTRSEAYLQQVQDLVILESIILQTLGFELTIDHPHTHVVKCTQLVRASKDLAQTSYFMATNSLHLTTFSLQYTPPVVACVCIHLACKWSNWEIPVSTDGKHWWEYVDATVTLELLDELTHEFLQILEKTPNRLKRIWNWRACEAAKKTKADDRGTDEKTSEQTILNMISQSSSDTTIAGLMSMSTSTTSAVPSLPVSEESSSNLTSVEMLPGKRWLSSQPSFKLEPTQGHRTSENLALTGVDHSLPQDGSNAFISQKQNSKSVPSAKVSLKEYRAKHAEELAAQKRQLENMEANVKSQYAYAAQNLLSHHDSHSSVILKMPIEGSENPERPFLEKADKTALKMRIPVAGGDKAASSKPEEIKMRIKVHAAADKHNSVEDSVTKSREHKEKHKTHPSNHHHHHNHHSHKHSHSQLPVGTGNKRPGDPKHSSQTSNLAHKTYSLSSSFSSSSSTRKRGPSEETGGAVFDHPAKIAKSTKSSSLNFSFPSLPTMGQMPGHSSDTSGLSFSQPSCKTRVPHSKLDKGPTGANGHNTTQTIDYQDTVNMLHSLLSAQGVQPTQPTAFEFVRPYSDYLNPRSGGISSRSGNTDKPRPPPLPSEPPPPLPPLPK
How it was run: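 Full-length His-tagged human CDK9/CycT1 (insect cell, ~0.5 μg/mL) preincubated 15 min at 22 °C with compound in Tris pH 8.0, MgCl2, DTT buffer before reaction with biotinylated peptide substrate at high ATP (2 mM).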

CDK12/CycK, sequence (Q9NYV4 with tags, fused parts or gaps): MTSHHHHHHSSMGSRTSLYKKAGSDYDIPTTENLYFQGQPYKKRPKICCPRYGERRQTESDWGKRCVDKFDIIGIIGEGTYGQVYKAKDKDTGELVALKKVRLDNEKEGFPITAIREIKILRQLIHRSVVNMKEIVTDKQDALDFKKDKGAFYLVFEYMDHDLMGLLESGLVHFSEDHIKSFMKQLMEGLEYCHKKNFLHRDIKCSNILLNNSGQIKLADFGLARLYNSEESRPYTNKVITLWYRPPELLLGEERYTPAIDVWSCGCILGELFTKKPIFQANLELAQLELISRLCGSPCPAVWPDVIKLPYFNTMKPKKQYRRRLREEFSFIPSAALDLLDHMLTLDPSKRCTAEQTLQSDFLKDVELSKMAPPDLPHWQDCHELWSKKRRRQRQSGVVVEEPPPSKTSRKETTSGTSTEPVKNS
CDK12/CycK, sequence (O75909 1-300 partner limits assumed): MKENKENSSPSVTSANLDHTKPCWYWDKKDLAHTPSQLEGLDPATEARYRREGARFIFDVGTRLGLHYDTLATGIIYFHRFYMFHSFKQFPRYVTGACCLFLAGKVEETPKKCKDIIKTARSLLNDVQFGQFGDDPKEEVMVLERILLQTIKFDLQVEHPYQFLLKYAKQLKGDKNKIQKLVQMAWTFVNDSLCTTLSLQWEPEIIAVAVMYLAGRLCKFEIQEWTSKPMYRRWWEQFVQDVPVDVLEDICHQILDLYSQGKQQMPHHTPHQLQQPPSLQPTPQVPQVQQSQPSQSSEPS

**Q.** `Cc1cc2nc(CNc3nc(N(C)CC(C)(C)O)nc4c(Br)cnn34)[nH]c2cc1C` [Example 343, 1-[(8-bromo-4-{[(5,6-dimethyl-1H-benzimidazol-2-yl)methyl]amino}pyrazolo[1,5-a][1,3,5]triazin-2-yl)(methyl)amino]-2-methylpropan-2-ol] was tested. Which IC50 (CDK12/CycK) did it give?
**A.** The IC50 was 0.188 µM.

**Q.** What about the IC50 (CDK9/CycT1) of the same molecule?
**A.** Its IC50 is 4.27 µM.

**Q.** For `CN1CCCN(c2nc(NCc3nc4ccccc4[nH]3)n3ncc(Br)c3n2)CC1` [Example 390, N-[(1H-benzimidazol-2-yl)methyl]-8-bromo-2-(4-methyl-1,4-diazepan-1-yl)pyrazolo[1,5-a][1,3,5]triazin-4-amine], which IC50 (CDK12/CycK) is on record?
**A.** The IC50 was greater than 20 µM.

**Q.** What about the IC50 (CDK9/CycT1) of the same molecule?
**A.** Its IC50 is greater than 20 µM.

**Q.** Which results are given for `Brc1cnn2c(NCc3nc4ccccc4[nH]3)nc(N3CC4CCC(C3)O4)nc12` [Example 351, N-[(1H-benzimidazol-2-yl)methyl]-8-bromo-2-(8-oxa-3-azabicyclo[3.2.1]octan-3-yl)pyrazolo[1,5-a][1,3,5]triazin-4-amine]?
**A.** IC50 (CDK12/CycK): 9.35 µM; IC50 (CDK9/CycT1): > 20 µM

**Q.** Which results are given for `Cc1cc2nc(CNc3nc(N4CC5CCC(C4)N5)nc4c(Br)cnn34)[nH]c2cc1C` [Example 353, 8-bromo-2-(3,8-diazabicyclo[3.2.1]octan-3-yl)-N-[(5,6-dimethyl-1H-benzimidazol-2-yl)methyl]pyrazolo[1,5-a][1,3,5]triazin-4-amine]?
**A.** IC50 (CDK12/CycK): 2.52 µM; IC50 (CDK9/CycT1): 12.7 µM

**Q.** For `Fc1cccc2[nH]c(CNc3nc(N4CCOCC4)nc4c(Cl)cnn34)nc12` [Example 361, 8-chloro-N-[(4-fluoro-1H-benzimidazol-2-yl)methyl]-2-(morpholin-4-yl)pyrazolo[1,5-a][1,3,5]triazin-4-amine], which IC50 (CDK12/CycK) is on record?
**A.** The IC50 was 1.43 µM.

**Q.** And the IC50 (CDK9/CycT1)?
**A.** Its IC50 is 13.8 µM.

**Q.** How did the IC50 (CDK12/CycK) turn out when `CN(CC(C)(C)O)c1nc(NCc2nc3cc(C(F)(F)F)ccc3[nH]2)n2ncc(C3CC3)c2n1` [Example 323, 1-{[8-cyclopropyl-4-({[5-(trifluoromethyl)-1H-benzimidazol-2-yl]methyl}amino)pyrazolo[1,5-a][1,3,5]triazin-2-yl](methyl)amino}-2-methylpropan-2-ol] was run?
**A.** The IC50 was 2.85 µM.

**Q.** And the IC50 (CDK9/CycT1)?
**A.** The IC50 was greater than 20 µM.

**Q.** What does the source list for `Brc1cnn2c(NCc3nc4ccccc4[nH]3)nc(N3CCN4CCC3CC4)nc12` [Example 349, N-[(1H-benzimidazol-2-yl)methyl]-8-bromo-2-(1,4-diazabicyclo[3.2.2]nonan-4-yl)pyrazolo[1,5-a][1,3,5]triazin-4-amine]?
**A.** IC50 (CDK12/CycK): 8.67 µM; IC50 (CDK9/CycT1): > 20 µM

**Q.** Which results are given for `FC(F)(F)Oc1cccc2[nH]c(CNc3nc(N4C[C@H]5CC[C@@H](C4)N5)nc4c(Br)cnn34)nc12` [Example 381, 8-bromo-2-[(1R,5S)-3,8-diazabicyclo[3.2.1]octan-3-yl]-N-{[4-(trifluoromethoxy)-1H-benzimidazol-2-yl]methyl}pyrazolo[1,5-a][1,3,5]triazin-4-amine]?
**A.** IC50 (CDK12/CycK): 5.91 µM; IC50 (CDK9/CycT1): 14 µM

**Q.** For `CN1CCN(c2nc(NCc3nc4c(F)c(Cl)ccc4[nH]3)n3ncc(Br)c3n2)CC1` [Example 373, 8-bromo-N-[(5-chloro-4-fluoro-1H-benzimidazol-2-yl)methyl]-2-(4-methylpiperazin-1-yl)pyrazolo[1,5-a][1,3,5]triazin-4-amine], which IC50 (CDK12/CycK) is on record?
**A.** The IC50 was 3.06 µM.

**Q.** And the IC50 (CDK9/CycT1)?
**A.** Its IC50 is 14.4 µM.

**Q.** What does the source list for `CN(CC(C)(C)O)c1nc(NCc2nc3c(F)cccc3[nH]2)n2ncc(Cl)c2n1` [Example 366, 1-[(8-chloro-4-{[(4-fluoro-1H-benzimidazol-2-yl)methyl]amino}pyrazolo[1,5-a][1,3,5]triazin-2-yl)(methyl)amino]-2-methylpropan-2-ol]?
**A.** IC50 (CDK12/CycK): 1.81 µM; IC50 (CDK9/CycT1): > 20 µM

**Q.** For `CN(CC(C)(C)O)c1nc(NCc2nc3cc(F)c(F)cc3[nH]2)n2ncc(C3CC3)c2n1` [Example 319, 1-[(8-cyclopropyl-4-{[(5,6-difluoro-1H-benzimidazol-2-yl)methyl]amino}pyrazolo[1,5-a][1,3,5]triazin-2-yl)(methyl)amino]-2-methylpropan-2-ol], which IC50 (CDK12/CycK) is on record?
**A.** Its IC50 is 2.38 µM.

**Q.** And the IC50 (CDK9/CycT1)?
**A.** The IC50 was greater than 20 µM.

**Q.** With `Fc1cc(F)cc(-c2nnc(CNc3nc(N4CCOCC4)nc4c(C(F)(F)F)cnn34)[nH]2)c1` [Example 386, N-{[5-(3,5-difluorophenyl)-4H-1,2,4-triazol-3-yl]methyl}-2-(morpholin-4-yl)-8-(trifluoromethyl)pyrazolo[1,5-a][1,3,5]triazin-4-amine] as the molecule, how does the IC50 (CDK12/CycK) read?
**A.** Its IC50 is 0.115 µM.

**Q.** And the IC50 (CDK9/CycT1)?
**A.** The IC50 was 0.749 µM.

**Q.** For `CN1CCN(c2nc(NCc3nc4cc(C(F)(F)F)ccc4[nH]3)n3ncc(Br)c3n2)CC1` [Example 344, 8-bromo-2-(4-methylpiperazin-1-yl)-N-{[5-(trifluoromethyl)-1H-benzimidazol-2-yl]methyl}pyrazolo[1,5-a][1,3,5]triazin-4-amine], which IC50 (CDK12/CycK) is on record?
**A.** Its IC50 is 8.37 µM.

**Q.** And the IC50 (CDK9/CycT1)?
**A.** Its IC50 is greater than 20 µM.

**Q.** What does the source list for `CN1CCN(c2nc(NCc3nc4cc(Cl)c(Cl)cc4[nH]3)n3ncc(Br)c3n2)CC1` [Example 330, 8-bromo-N-[(5,6-dichloro-1H-benzimidazol-2-yl)methyl]-2-(4-methylpiperazin-1-yl)pyrazolo[1,5-a][1,3,5]triazin-4-amine]?
**A.** IC50 (CDK12/CycK): 4.63 µM; IC50 (CDK9/CycT1): > 20 µM

**Q.** Which IC50 (CDK12/CycK) does the source give for `CN1CCN(c2nc(NCc3nc4c(F)c(F)ccc4[nH]3)n3ncc(Cl)c3n2)CC1` [Example 358, 8-chloro-N-[(4,5-difluoro-1H-benzimidazol-2-yl)methyl]-2-(4-methylpiperazin-1-yl)pyrazolo[1,5-a][1,3,5]triazin-4-amine] here?
**A.** The IC50 was 11.6 µM.

**Q.** What about the IC50 (CDK9/CycT1) of the same molecule?
**A.** Its IC50 is greater than 20 µM.

**Q.** With `CN(c1nc(NCc2nc3ccccc3[nH]2)n2ncc(Br)c2n1)[C@H]1C[C@@H](O)C1` [Example 364, cis-3-[(4-{[(1H-benzimidazol-2-yl)methyl]amino}-8-bromopyrazolo[1,5-a][1,3,5]triazin-2-yl)(methyl)amino]cyclobutan-1-ol] as the molecule, how does the IC50 (CDK12/CycK) read?
**A.** Its IC50 is 6.67 µM.

**Q.** What about the IC50 (CDK9/CycT1) of the same molecule?
**A.** The IC50 was greater than 20 µM.

**Q.** Which results are given for `CCNc1nc(NCc2nc(-c3ccc(C)cc3)c[nH]2)n2ncc(Br)c2n1` [Example 26, 8-bromo-N^2-ethyl-N^4-{[4-(4-methylphenyl)-1H-imidazol-2-yl]methyl}pyrazolo[1,5-a][1,3,5]triazine-2,4-diamine]?
**A.** IC50 (CDK12/CycK): 3.21 µM; IC50 (CDK9/CycT1): 8.74 µM

**Q.** Which IC50 (CDK12/CycK) does the source give for `CC(C)c1cnn2c(NCc3ncc(-c4ccccc4)[nH]3)nc(N3CCN(C)CC3)nc12` [Example 31, 2-(4-methylpiperazin-1-yl)-N-[(5-phenyl-1H-imidazol-2-yl)methyl]-8-(propan-2-yl)pyrazolo[1,5-a][1,3,5]triazin-4-amine] here?
**A.** Its IC50 is 13.6 µM.

**Q.** What about the IC50 (CDK9/CycT1) of the same molecule?
**A.** Its IC50 is greater than 20 µM.

**Q.** Which results are given for `Fc1ccc2[nH]c(CNc3nc(N4CCOCC4)nc4c(Cl)cnn34)nc2c1F` [Example 357]?
**A.** IC50 (CDK12/CycK): 1.15 µM; IC50 (CDK9/CycT1): 10 µM

**Q.** Which IC50 (CDK12/CycK) does the source give for `FC(F)(F)c1ccc2[nH]c(CNc3nc(N4CCOCC4)nc4c(Br)cnn34)nc2c1` [Example 339, 8-bromo-2-(morpholin-4-yl)-N-{[5-(trifluoromethyl)-1H-benzimidazol-2-yl]methyl}pyrazolo[1,5-a][1,3,5]triazin-4-amine] here?
**A.** The IC50 was 1.55 µM.

**Q.** And the IC50 (CDK9/CycT1)?
**A.** Its IC50 is 13.8 µM.

**Q.** For `Clc1cc2nc(CNc3nc(N4CC5CCC(C4)N5)nc4c(C5CC5)cnn34)[nH]c2cc1Cl` [Example 324, 8-cyclopropyl-2-(3,8-diazabicyclo[3.2.1]octan-3-yl)-N-[(5,6-dichloro-1H-benzimidazol-2-yl)methyl]pyrazolo[1,5-a][1,3,5]triazin-4-amine], which IC50 (CDK12/CycK) is on record?
**A.** The IC50 was 0.859 µM.

**Q.** What about the IC50 (CDK9/CycT1) of the same molecule?
**A.** The IC50 was 12.3 µM.

**Q.** What does the source list for `Fc1c(Cl)ccc2[nH]c(CNc3nc(N4CCOCC4)nc4c(Br)cnn34)nc12` [Example 372, 8-bromo-N-[(5-chloro-4-fluoro-1H-benzimidazol-2-yl)methyl]-2-(morpholin-4-yl)pyrazolo[1,5-a][1,3,5]triazin-4-amine]?
**A.** IC50 (CDK12/CycK): 0.269 µM; IC50 (CDK9/CycT1): 3.93 µM

**Q.** Which results are given for `CN(CC(C)(C)O)c1nc(NCc2nc3cc(OC(F)(F)F)ccc3[nH]2)n2ncc(Br)c2n1` [Example 378, 1-{[8-bromo-4-({[5-(trifluoromethoxy)-1H-benzimidazol-2-yl]methyl}amino)pyrazolo[1,5-a][1,3,5]triazin-2-yl](methyl)amino}-2-methylpropan-2-ol]?
**A.** IC50 (CDK12/CycK): 0.44 µM; IC50 (CDK9/CycT1): 12.7 µM

**Q.** `Fc1cc2nc(CNc3nc(N4CCOCC4)nc4c(C(F)(F)F)cnn34)[nH]c2cc1F` [Example 333, N-[(5,6-difluoro-1H-benzimidazol-2-yl)methyl]-2-(morpholin-4-yl)-8-(trifluoromethyl)pyrazolo[1,5-a][1,3,5]triazin-4-amine] was tested. Which IC50 (CDK12/CycK) did it give?
**A.** The IC50 was 0.142 µM.

**Q.** What about the IC50 (CDK9/CycT1) of the same molecule?
**A.** The IC50 was greater than 20 µM.

**Q.** What does the source list for `Fc1ccc(-c2nnc(CNc3nc(N4CCOCC4)nc4c(Br)cnn34)[nH]2)cc1` [Example 29, 8-bromo-N-{[5-(4-fluorophenyl)-4H-1,2,4-triazol-3-yl]methyl}-2-(morpholin-4-yl)pyrazolo[1,5-a][1,3,5]triazin-4-amine]?
**A.** IC50 (CDK12/CycK): 3.67 µM; IC50 (CDK9/CycT1): 2.4 µM

**Q.** For `CN1C2CCC1CN(c1nc(NCc3nc4c(F)c(F)ccc4[nH]3)n3ncc(C(F)(F)F)c3n1)C2` [Example 356, N-[(4,5-difluoro-1H-benzimidazol-2-yl)methyl]-2-(8-methyl-3,8-diazabicyclo[3.2.1]octan-3-yl)-8-(trifluoromethyl)pyrazolo[1,5-a][1,3,5]triazin-4-amine], which IC50 (CDK12/CycK) is on record?
**A.** Its IC50 is 4.91 µM.

**Q.** And the IC50 (CDK9/CycT1)?
**A.** Its IC50 is greater than 20 µM.

**Q.** How did the IC50 (CDK12/CycK) turn out when `Fc1ccc2[nH]c(CNc3nc(N4CC5CCC(C4)N5)nc4c(Cl)cnn34)nc2c1F.O=CO` [Example 360, formic acid 8-chloro-2-(3,8-diazabicyclo[3.2.1]octan-3-yl)-N-[(4,5-difluoro-1H-benzimidazol-2-yl)methyl]pyrazolo[1,5-a][1,3,5]triazin-4-amine] was run?
**A.** The IC50 was 4.01 µM.

**Q.** `Fc1cc2nc(CNc3nc(N4CCOCC4)nc4c(Br)cnn34)[nH]c2cc1Cl` [Example 336, 8-bromo-N-[(6-chloro-5-fluoro-1H-benzimidazol-2-yl)methyl]-2-(morpholin-4-yl)pyrazolo[1,5-a][1,3,5]triazin-4-amine] was tested. Which IC50 (CDK12/CycK) did it give?
**A.** The IC50 was 0.789 µM.

Source: patent US20230117034A1, “PYRAZOLOTRIAZINES” (Bayer Aktiengesellschaft, priority 2019, published 2023)
